Results published in patent US20120225862A1, “HETEROARYL BENZAMIDES, COMPOSITIONS AND METHODS OF USE” (AUCKLAND UNIVSERVICES LIMITED, priority 2009, published 2012).

Experiments:
[1] = test system: RCC4; experiment: XTT IC50 / viability assay, RCC4 cells; format: cell-based, human; conditions: Homo sapiens, RCC4, 96 h; XTT assay, four days
Protocol: (§1) RCC4 parental and RCC4 with VHL-reintroduced (RCC4/VHL), SN12C and SN12C-CSCG-VHL shRNA were maintained in DMEM supplemented with 10% FCS.
(§2) IC50 values for compounds were determined by XTT assay. For 2,3-bis[2-methoxy-4-nitro-5-sulfophenyl]-2H-tetrazolium-5-carboxanilide inner salt (XTT) assays, five thousand cells were plated in 96-well plates. The next day, vehicle or drug was added to each well and incubated for four days. Media was aspirated and phenol red-free medium with 0.3 mg/mL XTT and 2.65 ug/mL N-methyl dibenzopyrazine methyl sulfate was added. This was incubated at 37° C. for 1-2 hours and absorbance was read at 450 nm. IC50 values for each compound were calculated using linear interpolation.
(§3) For 2,3-bis[2-methoxy-4-nitro-5-sulfophenyl]-2H-tetrazolium-5-carboxanilide (XTT) assays, five thousand cells were plated in 96-well plates. The next day, vehicle (DMSO) or drug was added by serial dilution. Four days later, media were aspirated, XTT solution (0.3 mg/ml of XTT (Sigma), 2.65 mg/ml N-methyl dibenxopyrazine methyl sulfate (Simga) in phenol red-free media) was added, and the plates were incubated at 37° C. for 1-2 hours. Metabolism of XTT was quantified by measuring the absorbance at 450 nm. IC50s were calculated using linear interpolation. For clonogenic survival assays, three hundred cells were plated per 60 mm tissue culture dish. The cells were allowed to attach overnight and then treated with vehicle or drug for 14 days. Colonies were fixed and stained with crystal violet (0.1% crystal violet in 95% ethanol). All conditions were measured in triplicate and each experiment was done in duplicate or triplicate. To determine necrosis, cells were treated with drug for a given time point. Media and cells were collected, centrifugated, and resuspended in 0.4% trypan blue (Invitrogen). Live and dead cells were counted on a hematocytometer.

[2] = test system: RCC4/VHL; experiment: XTT IC50 assay, selectivity RCC4 versus RCC4 with VHL-reintroduced; format: cell-based, human; conditions: selectivity ratio of XTT IC50 values, RCC4 vs RCC4/VHL
Protocol: as §1, §2, §3

Row | SMILES | IC50 [1] [µM] | Ratio (RCC4:RCC/VHL) [2]
1 | Cc1cc(C)cc(COC(=O)NCc2ccc(C(=O)Nc3cccnc3)cc2)c1 [Compound A, reference compound] | > 20 | a (“a” reflects a ratio of RCC4/RCC-VHL+ ranging from 1 to 10)
2 | CC(C)(C)c1ccc(CNCc2ccc(C(=O)Nc3cccnc3)cc2)cc1 [Compound B, reference compound] | 1 to 20 | a (“a” reflects a ratio of RCC4/RCC-VHL+ ranging from 1 to 10)
3 | Cc1cc(C)cc(CNCc2ccc(C(=O)Nc3cccnc3)cc2)c1 [Compound C, reference compound] | > 20 | 
4 | CC(C)(C)c1ccc(COC(=O)NCc2ccc(C(=O)Nc3cccnc3)cc2)cc1 [Compound D, reference compound] | > 20 | 
5 | Cc1cccc(Nc2nc(-c3ccncc3)cs2)c1 [Compound E, reference compound] | 1 to 20 | b (“b” reflects from 10 to 100)
6 | O=C(Nc1ccccn1)c1ccc(CNS(=O)(=O)c2ccccc2)cc1 [Example 1, 4-(Phenylsulfonamidomethyl)-N-(pyridin-2-yl)benzamide] | > 20 | 
7 | O=C(Nc1cccnc1)c1ccc(CNS(=O)(=O)c2ccccc2)cc1 [Example 2, 4-(Phenylsulfonamidomethyl)-N-(pyridin-3-yl)benzamide] | 1 to 20 | a (“a” reflects a ratio of RCC4/RCC-VHL+ ranging from 1 to 10)
8 | O=C(Nc1ccncc1)c1ccc(CNS(=O)(=O)c2ccccc2)cc1 [Example 3, 4-(Phenylsulfonamidomethyl)-N-(pyridin-4-yl)benzamide] | > 20 | 
9 | Cc1ccccc1S(=O)(=O)NCc1ccc(C(=O)Nc2cccnc2)cc1 [Example 10, 4-((2-Methylphenylsulfonamido)methyl)-N-(pyridin-3-yl)benzamide] | 1 to 20 | a (“a” reflects a ratio of RCC4/RCC-VHL+ ranging from 1 to 10)
10 | O=C(Nc1cccnc1)c1ccc(CNS(=O)(=O)c2ccccc2F)cc1 [Example 11, 4-((2-Fluorophenylsulfonamido)methyl)-N-(pyridin-3-yl)benzamide] | 1 to 20 | a (“a” reflects a ratio of RCC4/RCC-VHL+ ranging from 1 to 10)
11 | O=C(Nc1cccnc1)c1ccc(CNS(=O)(=O)c2ccccc2Cl)cc1 [Example 12, 4-((2-Chlorophenylsulfonamido)methyl)-N-(pyridin-3-yl)benzamide] | 1 to 20 | a (“a” reflects a ratio of RCC4/RCC-VHL+ ranging from 1 to 10)
12 | O=C(Nc1cccnc1)c1ccc(CNS(=O)(=O)c2ccccc2Br)cc1 [Example 13, 4-((2-Bromophenylsulfonamido)methyl)-N-(pyridin-3-yl)benzamide] | 1 to 20 | a (“a” reflects a ratio of RCC4/RCC-VHL+ ranging from 1 to 10)
13 | N#Cc1ccccc1S(=O)(=O)NCc1ccc(C(=O)Nc2cccnc2)cc1 [Example 16, 4-((2-Cyanophenylsulfonamido)methyl)-N-(pyridin-3-yl)benzamide] | > 20 | a (“a” reflects a ratio of RCC4/RCC-VHL+ ranging from 1 to 10)
14 | Nc1cccc(S(=O)(=O)NCc2ccc(C(=O)Nc3cccnc3)cc2)c1 [Example 17, 4-((3-Aminophenylsulfonamido)methyl)-N-(pyridin-3-yl)benzamide] | 1 to 20 | b (“b” reflects from 10 to 100)
15 | Cc1cccc(S(=O)(=O)NCc2ccc(C(=O)Nc3cccnc3)cc2)c1 [Example 19, 4-((3-Methylphenylsulfonamido)methyl)-N-(pyridin-3-yl)benzamide] | < 1 | b (“b” reflects from 10 to 100)
16 | O=C(Nc1cccnc1)c1ccc(CNS(=O)(=O)c2cccc(F)c2)cc1 [Example 20, 4-((3-Fluorophenylsulfonamido)methyl)-N-(pyridin-3-yl)benzamide] | < 1 | b (“b” reflects from 10 to 100)
17 | O=C(Nc1cccnc1)c1ccc(CNS(=O)(=O)c2cccc(Cl)c2)cc1 [Example 21, 4-((3-Chlorophenylsulfonamido)methyl)-N-(pyridin-3-yl)benzamide] | < 1 | b (“b” reflects from 10 to 100)

Row | SMILES | IC50 [1] [µM] | Ratio (RCC4:RCC/VHL) [2]
18 | O=C(Nc1cccnc1)c1ccc(CNS(=O)(=O)c2cccc(Br)c2)cc1 [Example 22, 4-((3-Bromophenylsulfonamido)methyl)-N-(pyridin-3-yl)benzamide] | < 1 | b (“b” reflects from 10 to 100)
19 | O=C(Nc1cccnc1)c1ccc(CNS(=O)(=O)c2cccc(C(F)(F)F)c2)cc1 [Example 23, N-(Pyridin-3-yl)-4-((3-(trifluoromethyl)phenylsulfonamido)methyl)benzamide] | < 1 | b (“b” reflects from 10 to 100)
20 | N#Cc1cccc(S(=O)(=O)NCc2ccc(C(=O)Nc3cccnc3)cc2)c1 [Example 24, 4-((3-Cyanophenylsulfonamido)methyl)-N-(pyridin-3-yl)benzamide] | 1 to 20 | a (“a” reflects a ratio of RCC4/RCC-VHL+ ranging from 1 to 10)
21 | O=C(Nc1cccnc1)c1ccc(CNS(=O)(=O)c2cccc([N+](=O)[O-])c2)cc1 [Example 25, 4-((3-Nitrophenylsulfonamido)methyl)-N-(pyridin-3-yl)benzamide] | 1 to 20 | b (“b” reflects from 10 to 100)
22 | O=C(Nc1cccnc1)c1ccc(CNS(=O)(=O)c2cccc(-c3ccccc3)c2)cc1 [Example 26, 4-{[([1,1′-Biphenyl]-3-ylsulfonyl)amino]methyl}-N-(3-pyridinyl)benzamide] | 1 to 20 | b (“b” reflects from 10 to 100)
23 | O=C(Nc1cccnc1)c1ccc(CNS(=O)(=O)c2cccc(-c3ncccn3)c2)cc1 [Example 27, 4-[({[3-(2-Pyrimidinyl)phenyl]sulfonyl}amino)methyl]-N-(3-pyridinyl)benzamide] | < 1 | b (“b” reflects from 10 to 100)
24 | Cn1ccc(-c2cccc(S(=O)(=O)NCc3ccc(C(=O)Nc4cccnc4)cc3)c2)n1 [Example 28, 4-[({[3-(1-Methyl-1H-pyrazol-3-yl)phenyl]sulfonyl}amino)methyl]-N-(3-pyridinyl)benzamide] | < 1 | c (“c” reflects a ratio of >100)
25 | Cc1nnc(-c2cccc(S(=O)(=O)NCc3ccc(C(=O)Nc4cccnc4)cc3)c2)o1 [Example 29, 4-[({[3-(5-Methyl-1,3,4-oxadiazol-2-yl)phenyl]sulfonyl}amino)methyl]-N-(3-pyridinyl)benzamide] | 1 to 20 | b (“b” reflects from 10 to 100)
26 | Cc1nc(-c2cccc(S(=O)(=O)NCc3ccc(C(=O)Nc4cccnc4)cc3)c2)no1 [Example 30, 4-[({[3-(5-Methyl-1,2,4-oxadiazol-3-yl)phenyl]sulfonyl}amino)methyl]-N-(3-pyridinyl)benzamide] | < 1 | c (“c” reflects a ratio of >100)
27 | Cc1nc(-c2cccc(S(=O)(=O)NCc3ccc(C(=O)Nc4cccnc4)cc3)c2)cs1 [Example 31, 4-[({[3-(2-Methyl-1,3-thiazol-4-yl)phenyl]sulfonyl}amino)methyl]-N-(3-pyridinyl)benzamide] | 1 to 20 | b (“b” reflects from 10 to 100)
28 | Nc1ccc(S(=O)(=O)NCc2ccc(C(=O)Nc3cccnc3)cc2)cc1 [Example 32, 4-((4-Aminophenylsulfonamido)methyl)-N-(pyridin-3-yl)benzamide] | 1 to 20 | b (“b” reflects from 10 to 100)
29 | CC(C)(C)c1ccc(C(=O)NCc2ccc(C(=O)Nc3cccnc3)cc2)cc1 [Example 86, 4-tert-Butyl-N-(4-(pyridin-3-ylcarbamoyl)benzyl)benzamide] | > 20 | 
30 | CC(C)(C)c1ccc(S(=O)(=O)NCc2cccc(C(=O)Nc3cccnc3)c2)cc1 [Example 91, 3-[(4-tert-Butylphenylsulfonamido)methyl]-N-(3-pyridinyl)benzamide] | > 20 | 
31 | O=C(Nc1cccnc1)c1cccc(CNS(=O)(=O)c2ccccc2)c1 [Example 92, 3-[(Phenylsulfonamido)methyl]-N-(3-pyridinyl)benzamide] | > 20 | 
32 | O=C(Nc1ccncc1)c1ccc(CNS(=O)(=O)c2ccc(Br)cc2)cc1 [Example 96, 4-[(4-Bromophenylsulfonamido)methyl]-N-(4-pyridinyl)benzamide] | > 20 | 
33 | O=C(Nc1ccncc1)c1ccc(CNS(=O)(=O)c2ccc(F)cc2)cc1 [Example 97, 4-[(4-Fluorophenylsulfonamido)methyl]-N-(4-pyridinyl)benzamide] | > 20 | 
34 | NCCOCCOCCOCCOCCOCCOCC#Cc1ccc(S(=O)(=O)NCc2ccc(C(=O)Nc3ccncc3)cc2)cc1 [Example 105, 4-[({[4-(21-Amino-4,7,10,13,16,19-hexaoxahenicos-1-yn-1-yl)phenyl]sulfonyl}amino)methyl]-N-(4-pyridinyl)benzamide] | > 20 | 
